Results taken from US20240392249A1, “HUMAN HEPATOCYTE CULTURE MEDIUM AND CONDITIONED MEDIUM OF IN VITRO CULTURED HUMAN HEPATOCYTES AND USES THEREOF” (UNIVERSITY OF SOUTHERN CALIFORNIA, priority 2021, published 2024).

What was measured:
[1] = tested on: CYP2E1; assay type: cell-based; conditions: human, 7 days
Description: FIG. 9 show the impact of DMSO on the inducibility of CYP genes. Freshly isolated HHs were cultured for 7 days with HH recovery media (dHCGM) followed by the maintenance/application medium containing DMSO or DMSO2 for another 7 days in the presence of indicated concentration of CYP3A4 inducers ([…] and carbamazepine) (left) and CYP2El inducers (ethanol and isoniazid) (right). Then, and total RNA and cell lysates were subjected to immunoblotting analysis (left) and qPCR analysis (right) to determine the inducibility of indicated molecules.

[2] = tested on: HH; conditions: HH cultured with DMSO2-containing medium, only when tight-sealing apparatus is applied
Source text: Due to the high volatility of ethanol, it evaporates rapidly at a much higher rate that the rate of hepatocytes metabolizes.

[3] = tested on: CYP3A4; assay: CYP3A4 expression and inducibility in HH (immunoblotting); assay type: cell-based, human; conditions: HH cultured with DMSO2, 7-day treatment
Source text: Then, and total RNA and cell lysates were subjected to immunoblotting analysis (left) and qPCR analysis (right) to determine the inducibility of indicated molecules. Graph bars represent mean±SD; *, ** and *** indicate p<0.05 and p<0.01 and p<0.001 by one-way ANOVA.

[4] = tested on: ADH; assay: ADH activity (NADH production rate, absorbance at 340 nm) in HH cell homogenate; assay type: biochemical, human; conditions: in the presence of the organic compound
Description: Hepatoma cells (Huh7 and HepG2) were used as negative controls. (B) The relative ADH activity of HH were assessed in the absence of organic compounds (NT), as well as in the presence of DMSO or DMSO2 using the same method described in (A).

[5] = tested on: HH; assay: Screen of organic compounds as DMSO substitution: morphology and hepatocyte marker gene expression of recovered HH; assay type: cell-based, human; conditions: substitution for DMSO, additional 7 and 14 days culture
Source text: Then, total cell lysates were subjected to immunoblotting analysis for the detection of indicated molecules. NT; non treatment.
Then, HH was subjected to immunofluorescent analysis for the detection of MRP2 (Arrowheads), F-actin, DAPI. The bar indicates 25 μm.
In search of the DMSO substitution, we screened numerous organic compounds. The list of chemicals (Table 3) is selected based on the shared characteristics with DMSO, such as but not limited to the molecular size, solubility to the cell culture medium, stability at the standard temperature (melting and boiling temperatures), feasibility in handling (no significant chemical hazardous concern), and the cost. […] With the highest possible concentration, recovered HH (7 days old) were cultured for additional 7 and 14 days with refreshing of the medium at a frequency of every 3-4 days. On day 14 and 21, cells were subjected to the morphological and cell fate assessment along with the functional assessment (FIGS. 7 and 8).

[6] = molecular target: T1, CYP3A4 (Homo sapiens, UniProt P08684); assay: CYP3A4 activity in cultured HH, P450-Glo Assays; assay type: in vitro ADME; conditions: in the presence of the organic compound
T1 construct: endogenous in cells; host or cells: freshly isolated human hepatocytes (HH) in culture
Description: (§1) Then, cells were used for the assessment of CYP3A4 (left), and CYP2A9 (middle) activity in the presence of organic compounds (DMSO or DMSO2) using P450-Glo™ Assays (Promega). For the assessment of CYP2E1 activity (right) was assessed using Vivid™ CYP2E1 Blue Screening Kit (Thermo Fisher). Graph bars represent mean±SD; *, ** and *** indicate p<0.05 and p<0.01 and p<0.001 by one-way ANOVA; n.s, not significant; n.d., not detected.

[7] = molecular target: CYP2E1 (Homo sapiens, UniProt P05181); assay: CYP2E1 activity, Vivid CYP2E1 Blue Screening Kit; conditions: in the presence of the organic compound
Description: as §1
For the assessment of CYP2E1 activity (right) was assessed using VividTM CYP2E1 Blue Screening Kit (Thermo Fisher).

[8] = molecular target: CYP2A9 (Homo sapiens, UniProt P11712); conditions: HH, in the presence of the organic compound
Description: as §1

[9] = tested on: HH; assay: Ethanol metabolism to acetate by cultured HH (Acetate Colorimetric Assay Kit); assay type: cell-based; conditions: 10 mM ethanol, 24 hours, sealing apparatus, compared with human liver
Description: Then, HH were cultured with either DMSO or DMSO2 containing maintenance/application medium in the absence (0 mM) or presence of 10 mM ethanol for 24 hours. The sealing apparatus was applied throughout the course of ethanol treatment. At the end of the ethanol treatment, cell culture medium was harvested followed by the measurement of acetate concentration using Acetate Colorimetric Assay Kit (Biovision). […] The rate of acetate production was normalized by the cell number of the […] in order to assess the comparability of EtOH metabolizing capacity of HH with each given condition to that of the health human liver (right).

[10] = tested on: HH; assay: Withdrawal of DMSO from recovered HH: MRP2 immunofluorescence, immunoblotting, qPCR; assay type: cell-based, human; conditions: after 7 days recovery, additional 4 days
Source text: Then, HH were subjected to (A) immunofluorescent analysis for the detection of MRP2 (Arrowheads), (B) immunoblotting and (C) qPCR analysis for the detection of indicated hepatocytes marker molecules. The bar indicates 25 μm.

[11] = tested on: HH; assay: Role of DMSO in the cell fate recovery of freshly isolated HH; assay type: cell-based, human; conditions: 7 days
Source text: Then, HH were subjected to (A) immunofluorescent analysis for the detection of MRP2 (Arrowheads), (B) immunoblotting and (C) qPCR analysis for the detection of indicated hepatocytes marker molecules at the indicated time points.

T1 sequence (P08684 whole entry): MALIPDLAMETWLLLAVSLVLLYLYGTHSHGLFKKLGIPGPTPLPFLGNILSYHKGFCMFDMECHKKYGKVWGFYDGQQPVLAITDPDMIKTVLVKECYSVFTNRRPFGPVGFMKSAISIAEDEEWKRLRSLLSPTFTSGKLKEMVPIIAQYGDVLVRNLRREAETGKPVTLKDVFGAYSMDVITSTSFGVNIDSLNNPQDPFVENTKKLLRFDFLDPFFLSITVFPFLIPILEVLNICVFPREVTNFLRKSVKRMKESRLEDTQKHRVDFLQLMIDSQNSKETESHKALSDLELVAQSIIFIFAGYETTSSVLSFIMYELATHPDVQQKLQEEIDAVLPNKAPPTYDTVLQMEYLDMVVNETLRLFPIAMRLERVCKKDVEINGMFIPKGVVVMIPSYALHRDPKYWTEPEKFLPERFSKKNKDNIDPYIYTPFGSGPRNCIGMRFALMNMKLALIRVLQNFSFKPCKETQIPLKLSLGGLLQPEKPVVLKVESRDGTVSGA
Sequence of CYP2E1 (Homo sapiens, UniProt P05181) (P05181 whole entry): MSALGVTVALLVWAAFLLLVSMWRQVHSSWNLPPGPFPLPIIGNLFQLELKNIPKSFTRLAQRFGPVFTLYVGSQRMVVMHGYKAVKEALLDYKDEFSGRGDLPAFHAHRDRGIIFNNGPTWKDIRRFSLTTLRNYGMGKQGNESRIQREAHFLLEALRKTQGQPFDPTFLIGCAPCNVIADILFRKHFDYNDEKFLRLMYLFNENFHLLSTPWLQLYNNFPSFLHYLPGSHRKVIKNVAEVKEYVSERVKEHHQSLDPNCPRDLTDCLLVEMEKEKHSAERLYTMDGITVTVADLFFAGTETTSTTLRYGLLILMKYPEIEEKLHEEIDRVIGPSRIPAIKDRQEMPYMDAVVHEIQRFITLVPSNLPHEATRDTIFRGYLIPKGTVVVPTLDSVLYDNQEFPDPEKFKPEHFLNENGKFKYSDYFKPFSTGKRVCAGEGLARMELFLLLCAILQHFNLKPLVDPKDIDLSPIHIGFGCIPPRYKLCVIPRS
Sequence of CYP2A9 (P11712 whole entry): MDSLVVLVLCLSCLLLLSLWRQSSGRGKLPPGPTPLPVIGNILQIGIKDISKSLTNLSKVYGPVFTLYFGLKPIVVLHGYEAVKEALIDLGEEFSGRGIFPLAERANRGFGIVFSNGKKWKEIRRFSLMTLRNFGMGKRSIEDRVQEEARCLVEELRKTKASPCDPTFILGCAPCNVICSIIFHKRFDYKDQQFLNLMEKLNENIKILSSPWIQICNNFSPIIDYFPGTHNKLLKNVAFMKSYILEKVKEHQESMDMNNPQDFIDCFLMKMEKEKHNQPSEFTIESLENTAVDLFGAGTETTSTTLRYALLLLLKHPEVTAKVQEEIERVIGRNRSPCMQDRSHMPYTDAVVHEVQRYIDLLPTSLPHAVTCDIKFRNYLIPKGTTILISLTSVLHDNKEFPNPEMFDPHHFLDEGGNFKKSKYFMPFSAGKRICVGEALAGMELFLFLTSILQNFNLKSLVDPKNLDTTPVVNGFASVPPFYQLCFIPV

| Compound | CYP2E1 induction by inducer [1] | effect on ADH activity / ADH pathway [4] | maintenance of morphology and marker genes expression of recovered HH [5] | effect on metabolic activity of CYP3A4 [6] | effect on metabolic activity of CYP2E1 / CYP2E1 pathway [7] | other results |
| --- | --- | --- | --- | --- | --- | --- |
| NC(=O)N1c2ccccc2C=Cc2ccccc21 [Carbamazepine] |  |  |  |  |  | CYP3A4 induction by inducer [3]: CYP3A4 induction in a dose dependent manner |
| [O-][S+]1CCCC1 [TMSO, Tetramethylene sulfoxide] |  | inhibition of alcohol metabolism enzymes | capable of maintaining the morphology and the marker genes expression at a level comparable to that of DMSO-containing medium |  |  |  |
| CS(C)(=O)=O [DMSO2, dimethyl sulfone] |  |  | capable of maintaining the morphology and the marker genes expression at a level comparable to that of DMSO-containing medium | substantially less than that of DMSO-containing medium | substantially less than that of DMSO-containing medium |  |
| C[S+](C)[O-] [DMSO, dimethyl sulfoxide] |  | inhibition of ADH activity |  | potently prohibits | reciprocal changes were also seen in CYP2E1 | effect on CYP2A9 activity [8]: inhibition of DMPK enzymes; ethanol metabolism by HH (acetate production) [9]: inhibition of ethanol metabolism to the production of acetate; effect of withdrawal of DMSO on hepatocytic function and morphology [10]: rapid deterioration of the hepatocytic function and morphology; recovery of HH from cell injury and stress when cultured without DMSO during Phase 1 [11]: would not promote the recovery |

The next lines start with results.

| CYP2E1 induction by inducer [1] | Compound | effect on ADH activity / ADH pathway [4] | maintenance of morphology and marker genes expression of recovered HH [5] | effect on metabolic activity of CYP3A4 [6] | effect on metabolic activity of CYP2E1 / CYP2E1 pathway [7] | other results |
| --- | --- | --- | --- | --- | --- | --- |
| lack of CYP2E1 induction | NNC(=O)c1ccncc1 [Isoniazid] |  |  |  |  |  |
| lack of CYP2E1 induction | CCO [Ethanol] |  |  |  |  | lipid droplet accumulation in HH [2]: accumulation of lipid droplet (LD) |
